Reference: patent US20220241422A1, “DRUG DELIVERY COMPOSITION AND PHARMACEUTICAL COMPOSITION” (Nihon University, priority 2019, published 2022)

Experiments:
ALS model mice (G93A) = assay: Nasal administration test for NAC/PEG-PCL-Tat in ALS model mice (Rota-Rod motor function); format: in vivo, mouse; conditions: nasal administration 105 to 120 days of age, 5 days a week; compared with untreated
Method: A drug solution was prepared by dissolving NAC in HEPES buffer solution (pH 7.4) at a concentration of 50 mg/mL.
The drug solution was administered to G93A for a period from 105 days of age (15 weeks of age) after birth to 120 days of age, at a frequency of 5 days a week. […] Under inhalation anesthesia using a mask in which the vicinity of the nostrils could be opened or closed, 2 μL each of the drug solution was alternately administered to the right and left nasal cavities every 30 seconds using a micropipette (see FIG. 3). Only male mice were used for the test, and in principle, administration was performed in the morning (10:00 to 12:00).
The motor function was evaluated using Rota-Rod (Muromachi Kikai Co., Ltd.). In order to acclimatize mice to Rota-Rod, mice were trained from 3 weeks (12 weeks of age) before the day of measurement initiation. The rotation speed of Rota-Rod was set to 24 times/minute. The measurement was performed twice a week, and the time (seconds) taken until the mouse fell from Rota-Rod was measured. The cut-off value was set to 300 seconds, while in the case of falling, the average value of three times was used as the score for that day, and measurements were taken up to 122 days after birth.

[1] = test system: ALS model mice (G93A SOD1 transgenic mouse); assay: Oral administration test for NAC in ALS model mice (Rota-Rod motor function, survival time); format: in vivo; conditions: oral administration from 15 weeks of age, vs water-administered group
Source text: NAC is considered to be effective for treating ALS as a result of its effect of removing active oxygen. Thus, NAC was used as a test drug for ALS treatment.
As a test animal, G93A SOD1 transgenic mouse (G93A), which is one of the ALS model animals, was used. […] The research group of the present inventors has already reported the characteristics of the change (progression) in the motor dysfunction of this G93A (Miyagisi H et al., J Pharmacol Sci., 118, 225-236 (2012)).
NAC was orally administered to G93A from 15 weeks of age (105 days of age) after the onset of ALS, and the motor function and the survival time were examined. Water was orally administered as a negative control.
The motor function was evaluated using Rota-Rod (Muromachi Kikai Co., Ltd.). in order to acclimatize mice to Rota-Rod, mice were trained from 3 weeks (12 weeks of age) before the day of measurement initiation. The rotation speed of Rota-Rod was set to 24 times/minute. The measurement was performed twice a week, and the time (seconds) taken until the mouse fell from Rota-Rod was measured. The cut-off value was set to 300 seconds, while in the case of falling, the average value of three times was used as the score for that day, and measurements were taken up to 133 days after birth.

## CC(=O)N[C@@H](CS)C(=O)O [NAC, N-Acetyl-Cysteine]
ALS model mice (G93A)
  suppression of hypanakinesia (Rota-Rod, FIG. 4A): hypanakinesia was suppressed
[1]
  motor function (Rota-Rod): no difference
  survival time: no difference
